From US9951047B2, “Salt of monocyclic pyridine derivative and crystal thereof” (Eisai R&D Management Co., Ltd., priority 2014, dated 2018)

What was measured:
[1] = test system: human stomach cancer cell line SNU-16; assay: cells; conditions: SNU-16, 72 h, read-out: SNU-16 (IC50 (nM))
Procedure: Then, 10 μL of Cell Counting Kit-8 (Dojindo Laboratories, CK04) was added to each well, and the resultant was incubated for 1 to 2 hours in a 5% CO2 incubator (37° C.) to cause a color reaction. The absorbance value was measured with ENVISION™ (PerkinElmer Co., Ltd.) at 450 nm. Absorbance value of the wells without adding the test substance was defined as 100% and the absorbance value of the wells containing no cells was defined as 0%. Then, an absorbance ratio in the presence of the test substance was calculated.

[2] = test system: SNU-16 subcutaneous xenograft; assay: Antitumor effect in SNU-16 subcutaneous xenograft model in mice; format: in vivo; conditions: nude mice, tumor volume on last day
Procedure: Human stomach cancer cell line SNU-16, which had been cultured in an RPMI-1640 medium containing 10% FBS, and penicillin/streptomycin, were adjusted to a concentration of 1×10^8 cells/mL with Hanks' Balanced Salt Solution (GIBCO #24020) to prepare a cell suspension, and the suspension was mixed with MATRIGEL (BD Biosciences, Cat#354234) in a ratio of 1:1 to prepare a cell suspension in a concentration of 5×10^7 cells/mil. The cell suspension was inoculated in a volume of 100 μL into a subcutaneous part of a right flank of nude mice, 6 to 7 weeks of ages (BALB/cAJcl-nu/nu, female, Clea Japan Inc.). Seven days after cell inoculation, the shortest diameter and the longest diameter of a tumor in each mouse were measured by using an electronic digital caliper (Digimatic™ caliper, Mitutoyo Corporation), so as to calculate the volume of the tumor in accordance with the following calculation formula: Tumor volume (mm^3)=Longest diameter (mm)×Shortest diameter (mm)×Shortest diameter (mm)/2
On the basis of the volumes of tumors obtained on the first day of administration, the nude mice were grouped such that averages of the tumor volumes were substantially equal among the groups. Each test substance was dissolved in DMSO, Tween 80 was added thereto to prepare a solution in a 10-fold concentration and the thus prepared solution was stored at the freezer before use. Immediately before the administration, the stock solution was diluted with a 5% glucose solution to obtain a final administration solution (in which a ratio in % among DMSO, Tween 80 and the 5% glucose solution was 3.5:6.5:90). Each evaluation sample was orally administered to test substance administration group at a volume of 20 mL/Kg once a day continuously for 11 days, and in a control group, an administration solvent was orally administered under the same conditions. Incidentally, the experiment was conducted on groups each consisting of 5 mice.
With respect to each of the control group and test substance administration group, a ratio of the weight measured on the final day to the weight measured on the first day (relative body weight: RBW) was calculated. If a ratio of the RBW of the test substance administration group/the RBW of the control group is 0.9 or more, the corresponding test substance administration group was defined as a well-tolerated. In the test substance administration group thus defined as well-tolerated, a ratio of the tumor volume of the test substance-dosing group to the tumor volume of the control group obtained on the last day (T/C) (%) was calculated, and shown in Table 3.

Structure (SMILES): CNC(=O)n1ccc2cc(Oc3ccnc(NC(=O)c4ccc(C5CCN(CCO)CC5)cc4)c3)c(OCCOC)cc21 [Compound (I), 5-({2-[({4-[1-(2-hydroxyethyl)piperidin-4-yl]phenyl}carbonyl)amino]pyridin-4-yl}oxy)-6-(2-methoxyethoxy)-N-methyl-1H-indole-1-carboxamide]
- IC50 [1]: 4.2 nM
- T/C (%) ([2]; 6.25 mg/kg orally once a day for 11 days): 49%
- T/C (%) ([2]; 12.5 mg/kg orally once a day for 11 days): 26%
- T/C (%) ([2]; 25 mg/kg orally once a day for 11 days): 16%
- T/C (%) ([2]; 50 mg/kg orally once a day for 11 days): 7%
